Source: US10065962B2, “Amino pryan ring derivative and composition and use thereof” (Sichuan Haisco Pharmaceutical Co., Ltd., priority 2014, dated 2018)
Where two headings read alike, the source gives them in different places. Values belong to the molecule of their own block, whether it stands above or below them.

Legend:
[1] = Evaluation of pharmacokinetics in rats; assay type: in vivo; conditions: rat, whole blood, po, male SD rats, 5 mg/kg intragastric; for Cmax: read-out: Blood drug level Cmax; for half-life: read-out: Half-life T1/2 (converted)
Description: Male SD rats (purchased from Vital River Laboratory Animal Technology Co. LTD. License No. 11400700005540) each weighing 200 to 240 g were fasted overnight. On the day of experiments, 3 SD rats were each intragastrically administered with 5 mg/kg compound, and a 0.20 ml blood sample was taken from their jugular veins before the administration and 15 min, 30 min, 45 min, 1 h, 2 h, 4 h, 8 h, 12 h, and 24 h after the administration, to an EDTA tube. Acetonitrile containing an internal reference (verapamil 5.00 ng/ml, and glibenclamide 50.0 ng/ml) was added to the blood sample, followed by vigorous vortexing and centrifuging at 13,000 rpm for 10 min. The supernatant was taken for the LC-MS/MS assay. Pharmacokinetics parameters were calculated by using the non-compartment mode in Pharsight Phoenix 6.3.

C57 mice = assay: Oral glucose tolerance test (OGTT) in mice; assay type: in vivo; conditions: 10 mg/kg intragastric, glucose 5 g/kg 60 min after administration
Description: The oral glucose tolerance test (OGTT) was performed to evaluate the hypoglycemic effect of the compounds of the present invention in mice. 8-week old male C57 mice were purchased from Beijing Vital River Laboratory Animal Technology Co., Ltd. (Laboratory Animal Certificate No. SCXK (Beijing) 2012-0001) and used in the test The mice were grouped based on the base level of blood sugar after fasted, with 10 animals per group. The test compounds were formulated into a 1 mg/ml suspension and administered intragastrically at a dose of 10 mg/kg, while a blank agent was administered to the blank control group. 60 min after the administration, a 50% aqueous solution of glucose was dosed (5 g/kg), and the blood sugar level of each mouse was measured with a OneTouch blood glucose meter manufactured by Johnson & Johnson at 0 min, 15 min, 30 min, 45 min, 60 min, and 120 min.

plasma DPP-IV [2] = target: T1, plasma DPP-IV (Rattus norvegicus, UniProt P14740); assay: Enzymatic screening experiment on plasma DPP-IV in rats; assay type: in vivo; conditions: SD rats, oral 3.0 mg/kg, plasma DPP-IV activity
T1 construct: from tissue; host or cells: plasma of SD rats
Description: Fasted rats were grouped based on the body weight.

plasma DPP-IV [3] = target: plasma DPP-IV (Canis lupus familiaris, UniProt A0A8I3Q2I8); conditions: beagle dogs, oral 10.0 mg/kg, plasma DPP-IV activity
Description: The laboratory animals were male beagle dogs provided by Chengdu Dashuo Biological Sciences and Technology Co., Ltd. Fasted beagle dogs were grouped based on the body weight. The test group was orally administrated with the test compounds at a dose of 10.0 mg/kg. Blood samples were taken at various time points after the administration and subjected to anticoagulation with EDTA-2Na. […] Plasma was taken and preserved at −20° C. For the enzymatic activity assay, 40 μl plasma was taken from each test sample, and 10 μl H-Ala-Pro-AFC substrate (0.2 mM) was added thereto, followed by reaction for 15 nm.

DPP-IV = DPP-IV (Mus musculus, UniProt P28843); assay: Effect of single oral administration on the enzymatic activity of DPP-IV in ob/ob mice; conditions: read-out: DPP-IV enzymatic activity
[4] = Concentration of the compound in monkey plasma by LC-MS/MS; assay type: in vivo; conditions: male, rhesus monkey, Rhesus monkeys, oral 10.0 mg/kg
Description: The laboratory animals were healthy male Rhesus monkeys each weighing about 5 kg, provided by Sichuan Primed Bio-tech Group Co. Ltd. Fasted Rhesus monkeys were grouped based on the body weight. […] For the enzymatic activity assay, 40 μl plasma was taken from each test sample, and 10 μl H-Ala-Pro-AFC substrate (0.2 mM) was added thereto, followed by reaction for 15 min. […] The period during which the inhibition of plasma. DPP-IV enzymatic activity was ≥80% was calculated for the test compounds, and the concentration of the compounds in plasma was measured by LC-MS/MS.

Sequence of DPP-IV (P28843 37-760 limits assumed): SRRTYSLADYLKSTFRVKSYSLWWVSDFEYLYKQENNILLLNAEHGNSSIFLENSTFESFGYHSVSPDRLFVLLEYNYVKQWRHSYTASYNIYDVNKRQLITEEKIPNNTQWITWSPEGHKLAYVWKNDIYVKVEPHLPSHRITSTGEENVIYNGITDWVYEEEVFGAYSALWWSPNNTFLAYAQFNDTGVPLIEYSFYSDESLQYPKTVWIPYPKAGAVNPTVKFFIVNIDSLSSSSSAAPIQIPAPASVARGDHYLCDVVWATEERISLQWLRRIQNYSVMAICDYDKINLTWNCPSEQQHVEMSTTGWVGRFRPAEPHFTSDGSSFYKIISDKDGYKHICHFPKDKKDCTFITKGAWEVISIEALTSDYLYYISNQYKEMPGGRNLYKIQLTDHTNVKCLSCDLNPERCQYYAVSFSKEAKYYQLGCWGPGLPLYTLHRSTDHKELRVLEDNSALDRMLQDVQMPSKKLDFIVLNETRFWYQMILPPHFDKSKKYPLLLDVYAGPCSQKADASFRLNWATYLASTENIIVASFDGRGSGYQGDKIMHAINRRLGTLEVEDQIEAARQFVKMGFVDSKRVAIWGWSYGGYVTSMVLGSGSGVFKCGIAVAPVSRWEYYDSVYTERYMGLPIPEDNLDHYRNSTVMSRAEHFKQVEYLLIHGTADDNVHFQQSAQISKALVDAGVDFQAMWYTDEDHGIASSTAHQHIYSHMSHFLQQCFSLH
T1 sequence (P14740 37-767 limits assumed): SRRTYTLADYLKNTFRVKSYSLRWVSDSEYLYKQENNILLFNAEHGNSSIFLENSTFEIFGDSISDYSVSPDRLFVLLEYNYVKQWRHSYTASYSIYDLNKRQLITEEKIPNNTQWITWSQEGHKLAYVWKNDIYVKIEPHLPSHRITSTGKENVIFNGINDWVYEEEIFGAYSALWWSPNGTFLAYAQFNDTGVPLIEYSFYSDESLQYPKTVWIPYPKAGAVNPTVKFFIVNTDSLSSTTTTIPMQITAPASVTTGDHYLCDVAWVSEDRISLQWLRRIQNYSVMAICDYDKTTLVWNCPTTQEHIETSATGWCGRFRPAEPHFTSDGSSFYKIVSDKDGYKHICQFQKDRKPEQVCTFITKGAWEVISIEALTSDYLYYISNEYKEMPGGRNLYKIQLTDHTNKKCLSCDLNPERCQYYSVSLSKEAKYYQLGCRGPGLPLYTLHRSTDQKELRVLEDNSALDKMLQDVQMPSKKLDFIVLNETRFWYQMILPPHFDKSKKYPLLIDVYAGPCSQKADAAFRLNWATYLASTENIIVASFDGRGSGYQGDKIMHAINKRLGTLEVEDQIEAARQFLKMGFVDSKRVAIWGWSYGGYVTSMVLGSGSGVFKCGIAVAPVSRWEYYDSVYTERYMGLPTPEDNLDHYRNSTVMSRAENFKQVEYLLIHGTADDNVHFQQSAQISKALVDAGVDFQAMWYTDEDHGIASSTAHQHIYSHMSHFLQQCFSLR
Sequence of plasma DPP-IV (Canis lupus familiaris, UniProt A0A8I3Q2I8) (A0A8I3Q2I8 1-765): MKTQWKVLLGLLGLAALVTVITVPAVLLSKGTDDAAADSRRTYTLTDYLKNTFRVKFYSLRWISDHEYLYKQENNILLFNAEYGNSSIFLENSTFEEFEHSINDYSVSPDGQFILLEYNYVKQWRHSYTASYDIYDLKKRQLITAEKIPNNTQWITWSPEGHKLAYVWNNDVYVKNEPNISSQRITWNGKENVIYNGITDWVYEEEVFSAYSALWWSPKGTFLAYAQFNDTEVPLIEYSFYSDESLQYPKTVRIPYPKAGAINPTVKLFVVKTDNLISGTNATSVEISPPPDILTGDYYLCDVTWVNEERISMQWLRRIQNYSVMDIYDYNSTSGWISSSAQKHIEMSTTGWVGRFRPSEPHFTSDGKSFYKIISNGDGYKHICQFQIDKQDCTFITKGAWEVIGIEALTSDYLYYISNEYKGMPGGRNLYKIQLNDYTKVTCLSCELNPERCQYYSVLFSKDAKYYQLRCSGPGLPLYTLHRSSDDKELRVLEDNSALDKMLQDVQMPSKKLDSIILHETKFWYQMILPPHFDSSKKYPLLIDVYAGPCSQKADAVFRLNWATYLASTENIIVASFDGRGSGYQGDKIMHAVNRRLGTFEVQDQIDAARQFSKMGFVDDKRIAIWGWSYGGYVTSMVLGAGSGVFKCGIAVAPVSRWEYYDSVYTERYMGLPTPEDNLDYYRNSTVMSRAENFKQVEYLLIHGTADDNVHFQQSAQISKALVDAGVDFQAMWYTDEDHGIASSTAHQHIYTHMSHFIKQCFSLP

- AUC(0-t) [1]: 66800 ng·h/mL
- Cmax [1]: 9290 ng/mL
- half-life [1]: 6.1 h
- Duration of Inhibition ≥70% (plasma DPP-IV [2]): 55 h
- Duration of Inhibition ≥80% (plasma DPP-IV [3]): 162 h
- response vs control in vivo at 30 mg/kg (DPP-IV; 2 h): 5.8%
- response vs control in vivo at 30 mg/kg (DPP-IV; 4 h): 5.4%
- response vs control in vivo at 30 mg/kg (DPP-IV; 10 h): 5.5%
- response vs control in vivo at 30 mg/kg (DPP-IV; 24 h): 30%
- response vs control in vivo at 30 mg/kg (DPP-IV; 34 h): 34.5%
- response vs control in vivo at 30 mg/kg (DPP-IV; 48 h): 58.1%
- response vs control in vivo at 30 mg/kg (DPP-IV; 58 h): 49.9%
- response vs control in vivo at 30 mg/kg (DPP-IV; 72 h): 66.7%
SMILES: CS(=O)(=O)n1cc2c(n1)CN([C@H]1CO[C@H](c3cc(F)ccc3F)[C@@H](N)C1)C2 [Omarigliptin]
- Decrease in AUC (blood sugar, OGTT) (C57 mice): 22.27%

- AUC(0-t) [1]: 106000 ng·h/mL
- Cmax [1]: 11600 ng/mL
- half-life [1]: 7.1 h
- concentration at 0 h ([4]; 0 h): 0 nM
- concentration at 0.5 h ([4]; 0.5 h): 270 nM
- concentration at 1 h ([4]; 1 h): 1060 nM
- concentration at 2 h ([4]; 2 h): 5640 nM
- concentration at 4 h ([4]; 4 h): 2560 nM
- concentration at 8 h ([4]; 8 h): 4220 nM
- concentration at 12 h ([4]; 12 h): 4010 nM
- concentration at 24 h ([4]; 24 h): 2930 nM
- concentration at 32 h ([4]; 32 h): 2560 nM
- concentration at 48 h ([4]; 48 h): 1940 nM
- concentration at 56 h ([4]; 56 h): 1280 nM
- concentration at 72 h ([4]; 72 h): 1120 nM
- concentration at 80 h ([4]; 80 h): 680 nM
- concentration at 96 h ([4]; 96 h): 710 nM
- concentration at 104 h ([4]; 104 h): 440 nM
- concentration at 120 h ([4]; 120 h): 340 nM
- concentration at 128 h ([4]; 128 h): 270 nM
- concentration at 144 h ([4]; 144 h): 210 nM
- concentration at 152 h ([4]; 152 h): 160 nM
- concentration at 168 h ([4]; 168 h): 140 nM
- concentration at 216 h ([4]; 216 h): 71 nM
- concentration at 240 h ([4]; 240 h): 41 nM
- concentration at 264 h ([4]; 264 h): 32 nM
SMILES: CS(=O)(=O)n1cc2c(n1)CN([C@@H]1C[C@H](N)[C@@H](c3cc(F)ccc3F)O[C@@H]1C(F)(F)F)C2 [Compound 3, (2R,3S,5R,6S)-2-(2,5-difluorophenyl)-5-(2-(methylsulfonyl)pyrrolo[3,4-c]pyrazol-5(2H,4H,6H)-yl)-6-(trifluoromethyl)tetrahydro-2H-pyran-3-amine]
- Decrease in AUC (blood sugar, OGTT) (C57 mice): 27.99%

SMILES: N[C@H]1C[C@@H](N2Cc3cn(S(=O)(=O)C4CC4)nc3C2)[C@@H](C(F)(F)F)O[C@@H]1c1cc(F)ccc1F [Compound 1]
- Decrease in AUC (blood sugar, OGTT) (C57 mice): 27.20%
